Measurements from publication PMC12706802, “Ortho-Hydroxyanilides: Slow-Acting, Selective Histone Deacetylase 1/2 Inhibitors Suitable for Photocaging Applications” (ACS Pharmacology & Translational Science, 2025).
Where two headings read alike, the source gives them in different places. One block for each molecule: values may come before it.

Tests used:
HDAC2 = HDAC2 (Homo sapiens, UniProt Q92769); assay: Fluorescence-based biochemical HDAC enzyme inhibition assay (ZMAL substrate)
Method: (§2) First, the inhibitory activity and isoform selectivity of compounds and controls (see Figure ) was evaluated in a fluorescence-based biochemical HDAC inhibition assay against recombinant HDAC1, HDAC2, HDAC3, and HDAC6. […] First, 3-fold serial dilutions of test compounds were prepared in DMSO. […] IC50 values were determined by generating normalized dose–response curves using the three-parameter logistic equation (GraphPad Prism 8.0, San Diego, USA).

HDAC1 = HDAC1 (Homo sapiens, UniProt Q13547); assay: as above
Method: as §2

MDA-MB-231 cells = assay: MTT cell viability (antiproliferative) assay; type: cell-based; conditions: Homo sapiens, MDA-MB-231, light or radiation study
Method: (§1) To evaluate the cytotoxicity of the selected HDAC inhibitors, compounds were tested for their antiproliferative activity against MV-3 and MDA-MB-231 cells using the MTT assay. […] MTT (3-(4,5-dimethylthiazol-2-yl)-2,5-diphenyltetrazolium bromide; Catalog# A2231; BioChemica, Applichem GmbH, Darmstadt, Germany) was utilized to measure the antiproliferative effect. Depending on the incubation time, 3000 MV-3 cells (72 h), 2000 MV-3 cells (96 h) or 1000 MV-3 cells (120 h) per well were seeded in 96-well plates (Starlab GmbH, Hamburg, Germany) with each well containing 199 μL of volume. […] Next, predilutions of the test compounds were prepared in DMSO. […] Subsequently, cells were treated with 1.0 μL of the dilution series of the test compounds. […] After removing the supernatant, formazan was solubilized in 200.0 μL DMSO. The absorbance was measured at 570 nm with background subtraction at 690 nm using a Multiskan microplate photometer (Thermo Fisher Scientific, Waltham, MA, USA). The obtained data were normalized to PBS, considering 100% viability.

[1] = system: HDACs in MDA-MB-231 cells; assay: HDAC whole cell inhibition assay; conditions: for EC50: Homo sapiens, MDA-MB-231, light or radiation study, read-out: whole-cell HDAC inhibition EC50, MDA-MB-231
Method: (§3) Furthermore, we determined the EC50 values in the nontumorigenic cell line HEK293 and in the hematological cancer cell line MM.1S.
(§4) For this purpose, 3-fold serial dilutions of test compounds (DMSO) were prepared and added at a volume of 0.5 μL to the cells. […] MAL was used in a final concentration of 0.3 mM in the respective cell culture medium with 0.5% IGEPAL CA-630 (Catalog# J61055, Alfa Aesar). […] The obtained data were normalized to vehicle treated cells, considering 100% enzyme activity. IC50 values were determined by generating dose–response curves using the four-parameter logistic equation (GraphPad Prism 8.0, San Diego, USA).

human recombinant HDAC6 = molecular target: T1, human recombinant HDAC6 (Homo sapiens, UniProt Q9UBN7); assay: Fluorescence-based biochemical HDAC enzyme inhibition assay (ZMAL substrate)
T1 sequence (Q9UBN7 1-1215): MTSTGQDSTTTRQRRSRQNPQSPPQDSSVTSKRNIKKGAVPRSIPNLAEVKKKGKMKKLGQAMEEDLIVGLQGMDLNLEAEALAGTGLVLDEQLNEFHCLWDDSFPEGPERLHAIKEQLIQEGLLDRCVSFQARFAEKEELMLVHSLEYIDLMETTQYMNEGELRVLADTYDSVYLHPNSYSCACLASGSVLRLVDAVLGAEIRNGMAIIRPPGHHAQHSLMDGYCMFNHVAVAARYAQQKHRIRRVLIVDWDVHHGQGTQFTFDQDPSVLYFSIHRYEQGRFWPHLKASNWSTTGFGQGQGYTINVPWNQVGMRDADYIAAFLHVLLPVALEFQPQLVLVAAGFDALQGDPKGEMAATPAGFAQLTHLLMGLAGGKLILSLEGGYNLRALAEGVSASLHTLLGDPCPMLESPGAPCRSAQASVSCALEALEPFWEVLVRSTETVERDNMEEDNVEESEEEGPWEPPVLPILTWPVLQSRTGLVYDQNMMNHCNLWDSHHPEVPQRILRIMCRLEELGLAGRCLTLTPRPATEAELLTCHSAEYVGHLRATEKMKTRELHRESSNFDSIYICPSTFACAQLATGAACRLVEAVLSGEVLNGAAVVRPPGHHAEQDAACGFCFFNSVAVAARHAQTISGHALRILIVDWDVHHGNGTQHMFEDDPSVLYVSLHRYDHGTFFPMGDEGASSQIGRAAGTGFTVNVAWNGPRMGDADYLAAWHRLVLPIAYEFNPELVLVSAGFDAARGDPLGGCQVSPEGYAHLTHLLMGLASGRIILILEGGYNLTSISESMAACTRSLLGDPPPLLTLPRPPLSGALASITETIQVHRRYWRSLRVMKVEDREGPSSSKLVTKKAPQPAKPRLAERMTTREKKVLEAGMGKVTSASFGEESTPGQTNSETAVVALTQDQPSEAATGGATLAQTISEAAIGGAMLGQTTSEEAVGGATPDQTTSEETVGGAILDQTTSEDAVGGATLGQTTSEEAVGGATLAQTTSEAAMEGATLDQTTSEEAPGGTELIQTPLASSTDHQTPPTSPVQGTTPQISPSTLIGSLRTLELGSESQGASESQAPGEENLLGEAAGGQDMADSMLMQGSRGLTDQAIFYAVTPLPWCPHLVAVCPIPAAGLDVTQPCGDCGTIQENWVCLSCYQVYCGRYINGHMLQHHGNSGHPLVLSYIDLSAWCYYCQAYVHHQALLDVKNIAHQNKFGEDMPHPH
Method: as §2

[2] = HPLC photolysis experiments (release of ST13 from ST17); type: physicochemical; conditions: 10 min
Method: The deprotection of ST17 and its effective conversion (82%) to its parent HDAC inhibitor ST13 upon irradiation (10 min; λ = 365 nm) was confirmed by high-performance liquid chromatography (HPLC) experiments (see Figure S3, Supporting Information). Next, ST17 was tested for its inhibitory activity against HDAC1, HDAC2, HDAC3, and HDAC6 with and without irradiation at 365 nm (see Table ).
For the deprotection experiments, 10 μL of a 1 mM ST17 solution in DMSO were irradiated for 10 min. Subsequently, samples were diluted with acetonitrile to a final concentration of 100 μM and analyzed via HPLC/UV (λquant = 250 nm) using the area under the curve (area [mAU × min]) for quantification. The amount of ST13 released from the photocager ST17 was quantified using a calibration curve of ST13 (see Figure S2).

human recombinant HDAC3 = human recombinant HDAC3 (Homo sapiens, UniProt O15379); assay: Fluorescence-based biochemical HDAC enzyme inhibition assay (ZMAL substrate)
Method: as §2

HDACs in MV-3 cells = assay: HDAC whole cell inhibition assay; conditions: for EC50: Homo sapiens, MV-3, light or radiation study, read-out: whole-cell HDAC inhibition EC50, MV-3
Method: as §3, §4

MV-3 cells = assay: MTT cell viability (antiproliferative) assay; type: cell-based, human; conditions: Homo sapiens, read-out: MV-3 EC50 (MTT)
Method: as §1

HDAC6 = system: HDAC6; parameters: method as in earlier work; conditions: Figure 1; ref 'Data taken from refs' (numbers not given); cited from earlier work
[3] = HDAC2 IC50, preincubation of enzyme and inhibitor 1 h at RT, no irradiation
[4] = HDAC1 IC50, preincubation of enzyme and inhibitor 1 h at RT, no irradiation

HDAC2, sequence (Q92769 whole entry): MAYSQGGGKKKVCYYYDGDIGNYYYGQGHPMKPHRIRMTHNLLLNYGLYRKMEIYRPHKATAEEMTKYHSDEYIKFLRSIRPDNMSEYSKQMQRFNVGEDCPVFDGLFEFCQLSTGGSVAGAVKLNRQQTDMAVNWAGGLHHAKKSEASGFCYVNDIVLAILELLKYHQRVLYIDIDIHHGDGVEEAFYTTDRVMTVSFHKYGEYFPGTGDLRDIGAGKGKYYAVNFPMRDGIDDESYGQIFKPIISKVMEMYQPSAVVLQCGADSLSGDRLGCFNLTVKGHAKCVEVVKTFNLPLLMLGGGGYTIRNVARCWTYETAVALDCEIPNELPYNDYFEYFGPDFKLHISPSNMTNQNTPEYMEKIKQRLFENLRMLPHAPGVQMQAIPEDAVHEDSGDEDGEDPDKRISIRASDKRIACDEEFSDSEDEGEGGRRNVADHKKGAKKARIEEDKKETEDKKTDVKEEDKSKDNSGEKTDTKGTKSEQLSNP
HDAC1, sequence (Q13547 whole entry): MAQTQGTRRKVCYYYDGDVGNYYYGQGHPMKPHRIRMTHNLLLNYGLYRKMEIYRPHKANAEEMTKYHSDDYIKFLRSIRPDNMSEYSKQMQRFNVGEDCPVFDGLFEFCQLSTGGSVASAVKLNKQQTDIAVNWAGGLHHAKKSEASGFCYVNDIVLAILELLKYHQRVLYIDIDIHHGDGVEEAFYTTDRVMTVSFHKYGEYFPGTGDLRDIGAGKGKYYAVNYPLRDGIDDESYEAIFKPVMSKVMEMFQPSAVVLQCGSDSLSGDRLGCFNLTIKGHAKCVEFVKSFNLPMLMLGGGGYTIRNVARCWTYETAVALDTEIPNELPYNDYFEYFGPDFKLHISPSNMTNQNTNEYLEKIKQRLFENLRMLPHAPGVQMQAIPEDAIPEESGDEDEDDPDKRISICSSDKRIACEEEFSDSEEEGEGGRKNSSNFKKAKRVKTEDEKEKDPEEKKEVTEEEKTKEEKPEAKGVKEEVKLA
human recombinant HDAC3, sequence (O15379 whole entry): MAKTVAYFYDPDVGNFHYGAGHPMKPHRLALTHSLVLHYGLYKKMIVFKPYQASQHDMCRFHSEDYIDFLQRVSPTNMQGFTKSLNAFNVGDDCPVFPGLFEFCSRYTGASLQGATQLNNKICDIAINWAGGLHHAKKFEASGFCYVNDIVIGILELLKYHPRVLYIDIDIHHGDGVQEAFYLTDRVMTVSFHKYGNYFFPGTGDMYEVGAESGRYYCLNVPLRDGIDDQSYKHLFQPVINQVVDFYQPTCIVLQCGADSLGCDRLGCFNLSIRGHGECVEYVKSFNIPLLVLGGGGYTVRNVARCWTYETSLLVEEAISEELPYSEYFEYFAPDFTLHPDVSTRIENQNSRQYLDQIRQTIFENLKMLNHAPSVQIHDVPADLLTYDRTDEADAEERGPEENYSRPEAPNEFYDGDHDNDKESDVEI
human recombinant HDAC3, sequence (Q9Y618 395-489 partner limits assumed): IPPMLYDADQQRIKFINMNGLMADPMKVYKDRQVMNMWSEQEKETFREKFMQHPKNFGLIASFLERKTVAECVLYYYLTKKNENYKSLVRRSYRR

IC50 (HDAC2; [3]): > 10 µM | IC50 (HDAC1; [4]): > 10 µM
SMILES: CC(=O)Nc1ccc(C(=O)Nc2ccccc2O)cc1 [ST01, 4-Acetamido-N-(2-hydroxyphenyl)-benzamide]

IC50 (HDAC2; [3]): 1.71 ± 0.83 µM | IC50 (HDAC2; HDAC2 IC50, with UV irradiation (10 min, 365 nm) of ST17, preincubation 1 h at RT): 0.072 ± 0.012 µM | EC50 (MDA-MB-231 cells; incubation time 120 h, no irradiation): 11.2 ± 1.7 µM | EC50 (MDA-MB-231 cells; with UV irradiation (10 min, 365 nm) of ST17, 120 h): 6.78 ± 0.58 µM | EC50 ([1]; 18 h): 3.55 ± 2 µM | EC50 [1]: 0.783 ± 0.139 µM | IC50 (human recombinant HDAC6): > 10 µM | IC50 (human recombinant HDAC6; read-out: HDAC6 IC50, with UV irradiation (10 min, 365 nm) of ST17, preincubation 15 min at RT): > 10 µM | conversion to parent HDAC inhibitor ST13 upon irradiation (HPLC) ([2]; λ = 365 nm, in DMSO, room temperature): 82% | concentration of released ST13 following irradiation (HPLC) ([2]; initial ST17 concentration 100 µM, 365 nm): 81.67 µM | IC50 (HDAC1; [4]): 0.84 ± 0.308 µM | IC50 (HDAC1; HDAC1 IC50, with UV irradiation (10 min, 365 nm) of ST17, preincubation 1 h at RT): 0.04 ± 0.008 µM | IC50 (human recombinant HDAC3; HDAC3 IC50, preincubation of enzyme and inhibitor 1 h at RT, no irradiation): > 10 µM | IC50 (human recombinant HDAC3; HDAC3 IC50, with UV irradiation (10 min, 365 nm) of ST17, preincubation 1 h at RT): 8.58 ± 0.76 µM | EC50 (HDACs in MV-3 cells; 18 h): 5.98 ± 1.24 µM | EC50 (HDACs in MV-3 cells): 0.392 ± 0.07 µM
SMILES: COc1cc(COc2ccc(-c3ccccc3)cc2NC(=O)c2ccc(NC(C)=O)cc2)c([N+](=O)[O-])cc1OC [ST17, 4-Acetamido-N-(4-((4,5-dimethoxy-2-nitrobenzyl)-oxy)-[1,1′-biphenyl]-3-yl)-benzamide]
increase of activity by light-induced activation compared to untreated ST17, MDA-MB-231 ([1]; whole cell HDAC assay): 4.5 fold | increase of activity by light-induced activation compared to untreated ST17, MV-3 (HDACs in MV-3 cells; whole cell HDAC assay): 15 fold | EC50 (MV-3 cells; MV-3, light or radiation study, incubation time 120 h, no irradiation): 16.2 ± 4.1 µM | EC50 (MV-3 cells; MV-3, light or radiation study, with UV irradiation (10 min, 365 nm) of ST17, 120 h): 4.64 ± 0.93 µM

SMILES: CCCNNC(=O)c1ccc(CN(CC(=O)NCc2ccccc2)C(=O)c2ccc(N(C)C)cc2)cc1 [compound 5]
IC50 (HDAC6): 10 µM

SMILES: O=C(CCCCCCC(=O)Nc1ccccc1)NO [vorinostat, reference compound]
EC50 (MV-3 cells; MV-3, 72 h): 1.88 ± 0.73 µM
